Measured values taken from patent US20230049952A1, “METHODS AND COMPOUNDS FOR RESTORING MUTANT P53 FUNCTION” (PMV Pharmaceuticals, Inc., priority 2020, published 2023).

System: p53 signaling pathway in MT373 tumors
Test: MT373 syngeneic sarcoma model: mouse p53 signaling pathway profiling panel
Format: in vivo

CCn1c(C#CCNc2ccccc2)cc2cc(CNC3CCN(C)CC3)ccc21 [Compound 1, 1-Anilino-3-{1-ethyl-5-[(1-methyl-4-piperidylamino)methyl]-1H-indol-2-yl}-2-propyne]
Pcna fold increase or percent reduction vs vehicle control (150 mg/kg BIDx1, 24 h): 42.63 fold or % | Pmaip1 fold increase or percent reduction vs vehicle control (150 mg/kg BIDx1, 24 h): 1.45 fold or % | Ppm1d fold increase or percent reduction vs vehicle control (150 mg/kg BIDx1, 24 h): 1.49 fold or % | Prc1 fold increase or percent reduction vs vehicle control (150 mg/kg BIDx1, 24 h): 54.87 fold or % | Prkca fold increase or percent reduction vs vehicle control (150 mg/kg BIDx1, 24 h): 28.12 fold or % | Pten fold increase or percent reduction vs vehicle control (150 mg/kg BIDx1, 24 h): 1.08 fold or % | Pttg1 fold increase or percent reduction vs vehicle control (150 mg/kg BIDx1, 24 h): 1.11 fold or % | Rb1 fold increase or percent reduction vs vehicle control (150 mg/kg BIDx1, 24 h): 1.48 fold or % | Rela fold increase or percent reduction vs vehicle control (150 mg/kg BIDx1, 24 h): 14.73 fold or % | Rprm fold increase or percent reduction vs vehicle control (150 mg/kg BIDx1, 24 h): 2.12 fold or % | Serpinb5 fold increase or percent reduction vs vehicle control (150 mg/kg BIDx1, 24 h): 2.23 fold or % | Sesn2 fold increase or percent reduction vs vehicle control (150 mg/kg BIDx1, 24 h): 2.45 fold or % | Sfn fold increase or percent reduction vs vehicle control (150 mg/kg BIDx1, 24 h): 31.21 fold or % | Sirt1 fold increase or percent reduction vs vehicle control (150 mg/kg BIDx1, 24 h): 15.06 fold or % | Stat1 fold increase or percent reduction vs vehicle control (150 mg/kg BIDx1, 24 h): 1.51 fold or % | Tnf fold increase or percent reduction vs vehicle control (150 mg/kg BIDx1, 24 h): 1.23 fold or % | Traf1 fold increase or percent reduction vs vehicle control (150 mg/kg BIDx1, 24 h): 1.20 fold or % | Trp53bp2 fold increase or percent reduction vs vehicle control (150 mg/kg BIDx1, 24 h): 12.94 fold or % | Trp53 fold increase or percent reduction vs vehicle control (150 mg/kg BIDx1, 24 h): 27.25 fold or % | Apex1 fold increase or percent reduction vs vehicle control (150 mg/kg BIDx1, 48 h): 31.42 fold or % | Atm fold increase or percent reduction vs vehicle control (150 mg/kg BIDx1, 48 h): 26.33 fold or % | Atr fold increase or percent reduction vs vehicle control (150 mg/kg BIDx1, 48 h): 16.47 fold or % | Bag1 fold increase or percent reduction vs vehicle control (150 mg/kg BIDx1, 48 h): 42.01 fold or % | Bax fold increase or percent reduction vs vehicle control (150 mg/kg BIDx1, 48 h): 30.76 fold or % | Bbc3 fold increase or percent reduction vs vehicle control (150 mg/kg BIDx1, 48 h): 1.04 fold or % | Bcl2 fold increase or percent reduction vs vehicle control (150 mg/kg BIDx1, 48 h): 23.30 fold or % | Bid fold increase or percent reduction vs vehicle control (150 mg/kg BIDx1, 48 h): 1.01 fold or % | Birc5 fold increase or percent reduction vs vehicle control (150 mg/kg BIDx1, 48 h): 66.42 fold or % | Brca1 fold increase or percent reduction vs vehicle control (150 mg/kg BIDx1, 48 h): 60.55 fold or % | Brca2 fold increase or percent reduction vs vehicle control (150 mg/kg BIDx1, 48 h): 41.49 fold or % | Btg2 fold increase or percent reduction vs vehicle control (150 mg/kg BIDx1, 48 h): 1.05 fold or % | Casp2 fold increase or percent reduction vs vehicle control (150 mg/kg BIDx1, 48 h): 15.74 fold or % | Ccnb1 fold increase or percent reduction vs vehicle control (150 mg/kg BIDx1, 48 h): 73.80 fold or % | Ccne1 fold increase or percent reduction vs vehicle control (150 mg/kg BIDx1, 48 h): 38.25 fold or % | Ccng1 fold increase or percent reduction vs vehicle control (150 mg/kg BIDx1, 48 h): 1.45 fold or % | Ccnh fold increase or percent reduction vs vehicle control (150 mg/kg BIDx1, 48 h): 16.38 fold or % | Cdc25a fold increase or percent reduction vs vehicle control (150 mg/kg BIDx1, 48 h): 42.22 fold or % | Cdk1 fold increase or percent reduction vs vehicle control (150 mg/kg BIDx1, 48 h): 69.40 fold or % | Cdk4 fold increase or percent reduction vs vehicle control (150 mg/kg BIDx1, 48 h): 54.23 fold or % | Cdkn1a fold increase or percent reduction vs vehicle control (150 mg/kg BIDx1, 48 h): 1.38 fold or % | Cdkn2a fold increase or percent reduction vs vehicle control (150 mg/kg BIDx1, 48 h): 38.18 fold or % | Chek1 fold increase or percent reduction vs vehicle control (150 mg/kg BIDx1, 48 h): 63.16 fold or % | Cradd fold increase or percent reduction vs vehicle control (150 mg/kg BIDx1, 48 h): 24.24 fold or % | Cul9 fold increase or percent reduction vs vehicle control (150 mg/kg BIDx1, 48 h): 1.03 fold or % | Dapk1 fold increase or percent reduction vs vehicle control (150 mg/kg BIDx1, 48 h): 1.17 fold or % | Dnmt1 fold increase or percent reduction vs vehicle control (150 mg/kg BIDx1, 48 h): 34.04 fold or % | E2f1 fold increase or percent reduction vs vehicle control (150 mg/kg BIDx1, 48 h): 30.48 fold or % | E2f3 fold increase or percent reduction vs vehicle control (150 mg/kg BIDx1, 48 h): 33.97 fold or % | Egfr fold increase or percent reduction vs vehicle control (150 mg/kg BIDx1, 48 h): 41.85 fold or % | Egr1 fold increase or percent reduction vs vehicle control (150 mg/kg BIDx1, 48 h): 46.38 fold or % | Ep300 fold increase or percent reduction vs vehicle control (150 mg/kg BIDx1, 48 h): 1.10 fold or % | Ercc1 fold increase or percent reduction vs vehicle control (150 mg/kg BIDx1, 48 h): 44.10 fold or % | Esr1 fold increase or percent reduction vs vehicle control (150 mg/kg BIDx1, 48 h): 1.67 fold or % | Fadd fold increase or percent reduction vs vehicle control (150 mg/kg BIDx1, 48 h): 9.11 fold or % | Fas fold increase or percent reduction vs vehicle control (150 mg/kg BIDx1, 48 h): 10.02 fold or % | Fasl fold increase or percent reduction vs vehicle control (150 mg/kg BIDx1, 48 h): 1.18 fold or % | Foxo3 fold increase or percent reduction vs vehicle control (150 mg/kg BIDx1, 48 h): 7.35 fold or % | Gadd45a fold increase or percent reduction vs vehicle control (150 mg/kg BIDx1, 48 h): 42.12 fold or % | Hif1a fold increase or percent reduction vs vehicle control (150 mg/kg BIDx1, 48 h): 2.87 fold or % | Il6 fold increase or percent reduction vs vehicle control (150 mg/kg BIDx1, 48 h): 79.27 fold or % | Jun fold increase or percent reduction vs vehicle control (150 mg/kg BIDx1, 48 h): 47.43 fold or % | Kras fold increase or percent reduction vs vehicle control (150 mg/kg BIDx1, 48 h): 1.18 fold or % | Lig4 fold increase or percent reduction vs vehicle control (150 mg/kg BIDx1, 48 h): 1.12 fold or % | Mdm2 fold increase or percent reduction vs vehicle control (150 mg/kg BIDx1, 48 h): 1.03 fold or % | Mdm4 fold increase or percent reduction vs vehicle control (150 mg/kg BIDx1, 48 h): 1.28 fold or % | Mel1 fold increase or percent reduction vs vehicle control (150 mg/kg BIDx1, 48 h): 6.76 fold or % | Mlh1 fold increase or percent reduction vs vehicle control (150 mg/kg BIDx1, 48 h): 19.02 fold or % | Msh2 fold increase or percent reduction vs vehicle control (150 mg/kg BIDx1, 48 h): 29.32 fold or % | Myod1 fold increase or percent reduction vs vehicle control (150 mg/kg BIDx1, 48 h): 1.51 fold or % | Nf1 fold increase or percent reduction vs vehicle control (150 mg/kg BIDx1, 48 h): 9.92 fold or % | Nfkb1 fold increase or percent reduction vs vehicle control (150 mg/kg BIDx1, 48 h): 4.37 fold or % | Pcna fold increase or percent reduction vs vehicle control (150 mg/kg BIDx1, 48 h): 58.04 fold or % | Pmaip1 fold increase or percent reduction vs vehicle control (150 mg/kg BIDx1, 48 h): 1.17 fold or % | Ppm1d fold increase or percent reduction vs vehicle control (150 mg/kg BIDx1, 48 h): 2.87 fold or % | Prc1 fold increase or percent reduction vs vehicle control (150 mg/kg BIDx1, 48 h): 59.70 fold or % | Prkca fold increase or percent reduction vs vehicle control (150 mg/kg BIDx1, 48 h): 22.18 fold or % | Pten fold increase or percent reduction vs vehicle control (150 mg/kg BIDx1, 48 h): 1.08 fold or % | Pttg1 fold increase or percent reduction vs vehicle control (150 mg/kg BIDx1, 48 h): 0.69 fold or % | Rb1 fold increase or percent reduction vs vehicle control (150 mg/kg BIDx1, 48 h): 1.43 fold or % | Rela fold increase or percent reduction vs vehicle control (150 mg/kg BIDx1, 48 h): 9.46 fold or % | Rprm fold increase or percent reduction vs vehicle control (150 mg/kg BIDx1, 48 h): 1.00 fold or % | Serpinb5 fold increase or percent reduction vs vehicle control (150 mg/kg BIDx1, 48 h): 3.17 fold or % | Sesn2 fold increase or percent reduction vs vehicle control (150 mg/kg BIDx1, 48 h): 1.21 fold or % | Sfn fold increase or percent reduction vs vehicle control (150 mg/kg BIDx1, 48 h): 13.65 fold or %
